Results from patent US20240382600A1, “BIFUNCTIONAL DEGRADERS COMPRISING A TEAD BINDER” (Novartis AG, priority 2021, published 2024).

Legend:
[1] = system: YAP-dependent transcription in NCI-H2052 Tet-On shYAP_2371 pLenti6 MCAT_Luc cells; assay: YAP reporter gene activity assay (MCAT-Luc), NCI-H2052; type: cell-based; settings: Homo sapiens, 24 hrs
[2] = system: MKN-45/Ubc-luc cells (unspecific inhibition of luciferase expression or activity); assay: Reporter gene assay specificity control (Ubc-Luc), MKN-45; type: cell-based; settings: Homo sapiens; MKN-45/Ubc-luc specificity control, 24 hrs
Summary of the method: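 MKN-45 cells stably carrying a ubiquitin C promoter–firefly luciferase construct, treated the day after seeding with eleven 2-fold compound dilutions (0.1% DMSO final) for 24 hrs at 37° C. Luminescence read 5 min after Steady Glo addition; cell-free background subtracted, as a control for nonspecific luciferase inhibition.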

[3] = system: YAP-dependent transcription in SF268-MCAT_Luc_dox-i-shYAPLevy (Clone 13) cells; assay: YAP reporter gene activity assay (MCAT-Luc), SF268; type: cell-based; settings: Homo sapiens, SF-268; SF268 MCAT_Luc, 24 hrs
MKN-45/Ubc-luc cells = assay: Proliferation assay (resazurin/AlamarBlue), MKN-45; type: cell-based; settings: Homo sapiens; MKN-45, 72 hours
Summary of the method: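 MKN-45 cells carrying constitutive Ubc-driven luciferase reporter, treated the day after seeding with eleven 2-fold dilutions (0.1% DMSO) for 72 h at 37 °C. Viability by resazurin, referenced to day-0 plate; GI50 from % growth (100 none, 0 stasis, −100 kill) and residual viability at top concentration.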

[4] = system: SF268-MCAT_Luc_dox-i-shYAPLevy (Clone 13) cells; assay: Proliferation assay (resazurin/AlamarBlue), SF268; type: cell-based; settings: Homo sapiens, SF-268; SF268, 72 hours
[5] = biological target: TEAD1-GFP in HEK293A cells (Homo sapiens (Human), UniProt P28347); assay: TEAD1 protein abundance flow cytometry assay in HEK293A; type: cell-based; settings: HEK293A TEAD1-GFP-CHYSEL-mCherry sensor cells, 24 h, GFP signal by flow cytometry
Chain of TEAD1-GFP in HEK293A cells (P28347 whole entry): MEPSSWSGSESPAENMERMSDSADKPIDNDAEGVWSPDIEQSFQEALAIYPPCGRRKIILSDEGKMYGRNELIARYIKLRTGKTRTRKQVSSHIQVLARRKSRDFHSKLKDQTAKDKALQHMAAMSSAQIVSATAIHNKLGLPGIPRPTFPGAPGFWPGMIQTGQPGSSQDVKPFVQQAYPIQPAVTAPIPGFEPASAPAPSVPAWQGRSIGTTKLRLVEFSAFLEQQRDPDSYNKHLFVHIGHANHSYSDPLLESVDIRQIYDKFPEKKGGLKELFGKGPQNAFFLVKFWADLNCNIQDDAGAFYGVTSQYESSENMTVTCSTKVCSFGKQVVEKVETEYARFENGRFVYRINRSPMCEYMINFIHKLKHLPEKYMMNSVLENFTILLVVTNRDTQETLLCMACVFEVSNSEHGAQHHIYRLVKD
Summary of the method: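 HEK293A stably expressing bicistronic TEAD1-GFP-CHYSEL-mCherry treated 24 h at 37° C with 10-point 3-fold series from 10 μM (0.1% DMSO), duplicate. Median GFP of 2,500 single cells by flow cytometry, normalized to parental HEK293A (0%) and DMSO (100%); DC50 from concentration-response curves.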

[6] = biological target: Avi-humanTEAD4^217-434 / Cy5 labeled humanYAP^60-100 (Homo sapiens (Human), UniProt Q15561); assay: In-vitro biochemical TR-FRET assay (TEAD4/YAP); type: binding; settings: 1 h at room temperature
Chain of Avi-humanTEAD4^217-434 / Cy5 labeled humanYAP^60-100 (Q15561 217-434): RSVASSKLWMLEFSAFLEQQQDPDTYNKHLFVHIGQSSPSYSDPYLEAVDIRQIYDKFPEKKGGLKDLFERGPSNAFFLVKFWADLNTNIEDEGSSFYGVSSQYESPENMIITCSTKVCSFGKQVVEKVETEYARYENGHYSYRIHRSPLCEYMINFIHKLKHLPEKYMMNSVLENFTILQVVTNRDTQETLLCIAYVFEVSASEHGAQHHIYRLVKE

[7] = system: NCI-H2052 Tet-On shYAP_2371 pLenti6 MCAT_Luc cells; assay: Proliferation assay (resazurin/AlamarBlue), NCI-H2052; type: cell-based; settings: Homo sapiens; NCI-H2052, 72 hours

IC50 [1]	IC50 [2]	IC50 [3]	GI50 (MKN-45/Ubc-luc cells)	DC50 [5]	IC50 [6]	GI50 [7]	Structure (SMILES)	GI50 [4]
10 nM	> 20000 nM	0.43 nM	12500 nM	1 nM	2.6 nM	38 nM	COc1ccc(C(=O)N2CCC(C3CCN(C(=O)[C@H]4CC[C@H](NC[C@]5(c6ccccc6)Oc6cc(F)c(Cl)c(-c7c(C(N)=O)ccc(OC)c7F)c6[C@@H]5C)CC4)CC3)CC2)cc1N1CCC(=O)NC1=O (atropisomer, axis not shown) [Example 10, 2-((2S,3S,4S)-5-chloro-2-((((1r,4S)-4-(1′-(3-(2,4-dioxotetrahydropyrimidin-1(2H)-yl)-4-methoxybenzoyl)-[4,4′-bipiperidine]-1-carbonyl)cyclohexyl)amino)methyl)-6-fluoro-3-methyl-2-phenyl-2,3-dihydrobenzofuran-4-yl)-3-fluoro-4-methoxybenzamide]	30 nM
1 nM	> 2000 nM	0.2 nM	> 2000 nM	< 0.3 nM	3.4 nM	3.5 nM	COc1ccc(C(N)=O)c(-c2c(Cl)c(F)cc3c2[C@H](C)[C@@](CN[C@H]2CC[C@H](C(=O)N4CCC(CC5CCN(C(=O)c6ccc(Cl)c(N7CCC(=O)NC7=O)c6)CC5)CC4)CC2)(c2ccccc2)O3)c1F (atropisomer, axis not shown) [Example 24, 2-((2S,3S,4S)-5-chloro-2-((((1r,4S)-4-(4-((1-(4-chloro-3-(2,4-dioxotetrahydropyrimidin-1(2H)-yl)benzoyl)piperidin-4-yl)methyl)piperidine-1-carbonyl)cyclohexyl)amino)methyl)-6-fluoro-3-methyl-2-phenyl-2,3-dihydrobenzofuran-4-yl)-3-fluoro-4-methoxybenzamide]	6.2 nM
3.1 nM	> 2000 nM	0.63 nM	> 2000 nM	3 nM	1.4 nM	11 nM	COc1ccc(C(N)=O)c(-c2c(Cl)c(F)cc3c2[C@H](C)[C@@](CN[C@H]2CC[C@H](C(=O)N4CCC(OC5CCN(C(=O)COc6ccc(N7CCC(=O)NC7=O)c(C)c6)CC5)CC4)CC2)(c2ccccc2)O3)c1F (atropisomer, axis not shown) [Example 14, 2-((2S,3S,4S)-5-chloro-2-((((1r,4S)-4-(4-((1-(2-(4-(2,4-dioxotetrahydropyrimidin-1(2H)-yl)-3-methylphenoxy)acetyl)piperidin-4-yl)oxy)piperidine-1-carbonyl)cyclohexyl)amino)methyl)-6-fluoro-3-methyl-2-phenyl-2,3-dihydrobenzofuran-4-yl)-3-fluoro-4-methoxybenzamide]	35 nM
15 nM	> 2000 nM	0.85 nM	> 2000 nM	4 nM	1 nM	62 nM	COc1ccc(C(=O)N2CCC(CN3CCN(C(=O)[C@H]4CC[C@H](NC[C@]5(c6ccccc6)Oc6cc(F)c(Cl)c(-c7c(C(N)=O)ccc(OC)c7F)c6[C@@H]5C)CC4)CC3)CC2)cc1N1CCC(=O)NC1=O (atropisomer, axis not shown) [Example 17, 2-((2S,3S,4S)-5-chloro-2-((((1r,4S)-4-(4-((1-(3-(2,4-dioxotetrahydropyrimidin-1(2H)-yl)-4-methoxybenzoyl)piperidin-4-yl)methyl)piperazine-1-carbonyl)cyclohexyl)amino)methyl)-6-fluoro-3-methyl-2-phenyl-2,3-dihydrobenzofuran-4-yl)-3-fluoro-4-methoxybenzamide]	49 nM

Further lines, the molecule ahead of its results:

Structure (SMILES)	IC50 [1]	IC50 [2]	IC50 [3]	GI50 (MKN-45/Ubc-luc cells)	DC50 [5]	IC50 [6]	GI50 [7]	GI50 [4]
COc1ccc(C(N)=O)c(-c2c(Cl)c(F)cc3c2[C@H](C)[C@@](CN[C@H]2CC[C@H](C(=O)N4CCC(OC5CCN(C(=O)COc6ccc(C)c(N7CCC(=O)NC7=O)c6)CC5)CC4)CC2)(c2ccccc2)O3)c1F (atropisomer, axis not shown) [Example 20, 2-((2S,3S,4S)-5-chloro-2-((((1r,4S)-4-(4-((1-(2-(3-(2,4-dioxotetrahydropyrimidin-1(2H)-yl)-4-methylphenoxy)acetyl)piperidin-4-yl)oxy)piperidine-1-carbonyl)cyclohexyl)amino)methyl)-6-fluoro-3-methyl-2-phenyl-2,3-dihydrobenzofuran-4-yl)-3-fluoro-4-methoxybenzamide]	3.9 nM	> 20000 nM	0.22 nM	> 20000 nM	0.4 nM	1.4 nM	19 nM	18 nM
COc1ccc(C(N)=O)c(-c2c(Cl)c(F)cc3c2[C@H](C)[C@@](CN[C@H]2CC[C@H](C(=O)N4CCC(OC5CCN(C(=O)COc6cc(-c7scnc7C)ccc6CNC(=O)[C@@H]6C[C@@H](O)CN6C(=O)[C@@H](NC(=O)C6(F)CC6)C(C)(C)C)CC5)CC4)CC2)(c2ccccc2)O3)c1F (atropisomer, axis not shown) [Example 38, (2S,4R)-N-(2-(2-(4-((1-((1S,4r)-4-((((2S,3S,4S)-4-(6-carbamoyl-2-fluoro-3-methoxyphenyl)-5-chloro-6-fluoro-3-methyl-2-phenyl-2,3-dihydrobenzofuran-2-yl)methyl)amino)cyclohexane-1-carbonyl)piperidin-4-yl)oxy)piperidin-1-yl)-2-oxoethoxy)-4-(4-methylthiazol-5-yl)benzyl)-1-((S)-2-(1-fluorocyclopropane-1-carboxamido)-3,3-dimethylbutanoyl)-4-hydroxypyrrolidine-2-carboxamide]	4 nM	> 2000 nM	0.42 nM	> 2000 nM	1 nM	7 nM	22 nM	24 nM
COc1ccc(C(N)=O)c(-c2c(Cl)c(F)cc3c2[C@H](C)[C@@](CN[C@H]2CC[C@H](C(=O)N4CCC(CC5CCN(CCn6cccc(CN7CCC(=O)NC7=O)c6=O)CC5)CC4)CC2)(c2ccccc2)O3)c1F (atropisomer, axis not shown) [Example 15, 2-((2S,3S,4S)-5-chloro-2-((((1r,4S)-4-(4-((1-(2-(3-((2,4-dioxotetrahydropyrimidin-1(2H)-yl)methyl)-2-oxopyridin-1(2H)-yl)ethyl)piperidin-4-yl)methyl)piperidine-1-carbonyl)cyclohexyl)amino)methyl)-6-fluoro-3-methyl-2-phenyl-2,3-dihydrobenzofuran-4-yl)-3-fluoro-4-methoxybenzamide]	17 nM	> 2000 nM	2.6 nM	1550 nM	3 nM	< 1 nM	31 nM	85 nM
CN[C@@H](C)C(=O)N[C@H](C(=O)N1C[C@@H](NCC(=O)N[C@H]2CC[C@H](NC(=O)[C@H]3CC[C@H](NC[C@]4(c5ccccc5)Oc5cc(F)c(Cl)c(-c6c(C(N)=O)ccc(OC)c6F)c5[C@@H]4C)CC3)CC2)C[C@H]1C(=O)N[C@@H]1CCCc2ccccc21)C1CCCCC1 (atropisomer, axis not shown) [Example 44, (2S,4S)-4-((2-(((1S,4S)-4-((1S,4S)-4-((((2S,3S,4S)-4-(6-carbamoyl-2-fluoro-3-methoxyphenyl)-5-chloro-6-fluoro-3-methyl-2-phenyl-2,3-dihydrobenzofuran-2-yl)methyl)amino)cyclohexane-1-carboxamido)cyclohexyl)amino)-2-oxoethyl)amino)-1-((S)-2-cyclohexyl-2-((S)-2-(methylamino)propanamido)acetyl)-N-((R)-1,2,3,4-tetrahydronaphthalen-1-yl)pyrrolidine-2-carboxamide]	630 nM	> 2000 nM	1.9 nM	> 2000 nM	2800 nM	2.3 nM	670 nM	1300 nM
COc1ccc(C(N)=O)c(-c2c(Cl)c(F)cc3c2[C@H](C)[C@@](CN[C@H]2CC[C@H](C(=O)N4CCC(CC5CCN(C(=O)Cn6cccc(CN7CCC(=O)NC7=O)c6=O)CC5)CC4)CC2)(c2ccccc2)O3)c1F (atropisomer, axis not shown) [Example 16, 2-((2S,3S,4S)-5-chloro-2-((((1r,4S)-4-(4-((1-(2-(3-((2,4-dioxotetrahydropyrimidin-1(2H)-yl)methyl)-2-oxopyridin-1(2H)-yl)acetyl)piperidin-4-yl)methyl)piperidine-1-carbonyl)cyclohexyl)amino)methyl)-6-fluoro-3-methyl-2-phenyl-2,3-dihydrobenzofuran-4-yl)-3-fluoro-4-methoxybenzamide]	14 nM	> 2000 nM	1.2 nM	> 2000 nM	6 nM	1.3 nM	52 nM	64 nM
